Test results: PMC11157491, “Novel Alaninamide Derivatives with Drug-like Potential for Development as Antiseizure and Antinociceptive Therapies—In Vitro and In Vivo Characterization” (ACS Chemical Neuroscience, 2024)
Where two headings read alike, the source gives them in different places.

What was measured:
[1] = test system: fast voltage-gated sodium channels in rat prefrontal cortex pyramidal neurons; assay: Patch-clamp recording of fast sodium currents; format: cell-based; details: control = 1.0
Method: Due to the relatively high concentration of compounds used in the in vitro assays, as well as brain concentration of 28 (>10 μM after 25 mg/kg dose administration) determined in the pharmacokinetic studies (see Section 2.10), it seems unlikely that compounds described herein act by any of mechanisms tested in the aforementioned binding and functional studies. […] Thus, in further in vitro assays, 28 was also evaluated for its influence on fast voltage-gated sodium channels in rat prefrontal cortex pyramidal neurons using the patch-clamp technique (maximal currents were evoked by rectangular voltage steps to −10 mV).
The averaged, maximal normalized amplitudes of voltage-gated sodium currents were 1.0 in control, 0.72 ± 0.06 after application of 28, and 0.86 ± 0.05 after wash-out (control vs 28p < 0.05).
Patch-clamp studies in prefrontal cortex pyramidal neurons. The methodology of slice preparation, preparation of dispersed cortical neurons, and sodium current recording technique were the same as in our previous study.[75]

[2] = Pharmacokinetic study in serum and brain; format: in vivo, mice; details: for k el: read-out: λz (converted); for Vd/F: read-out: Vz/F
Method: Male CD-1 mice weighing 28–33 g housed in conditions of constant temperature with the 12:12 h light–dark cycle with free access to food and water were used in this study. The investigated compound was suspended in 1% Tween in sterile water for injection (Polpharma, Poland) and administered i.p. at two doses of 25 and 50 mg/kg. Additionally, the compound dissolved in a mixture of dimethylsulfoxide (DMSO), poly(ethylene glycol), and sterile water (1:2:7, v/v/v) was given orally (p.o.) at a dose of 25 mg/kg. The mice were sacrificed by decapitation under isoflurane anesthesia. Blood samples were collected at 5, 15, 30, 60, 120, 240, and 720 min after dosing (n = 3–4), and brains were harvested at the same time points. Blood was allowed to clot at room temperature for 20 min, and serum was separated by centrifugation at 3000 rpm for 10 min. The samples were stored at −80 °C until analysis. All animal procedures were approved by the First Ethics Committee on Animal Experimentation in Kraków (license no. 270/2019).
Before LC-MS/MS analysis, mouse brains were homogenized in distilled water at the ratio of 1:4 (w/v) using the ULTRA-TURRAX T10 basic tissue homogenizer (IKA, Germany). Brain homogenates or serum samples (50 μL) were deproteinized with 150 μL of 0.1% formic acid in acetonitrile with addition of the internal standard (valsartan), shaken for 10 min (IKA Vibrax VXR, Germany), and then centrifuged for 5 min at a speed of 8000g (Eppendorf miniSpin centrifuge, Germany). Supernatants were transferred into autosampler vials, and a sample volume of 1 μL was injected into the LC-MS/MS system. The autosampler temperature was maintained at 15 °C. Analytes were separated on a Hypersil Gold C18 analytical column (3 × 50 mm^2, 5 μm, Thermo Scientific) using an AB Sciex Exion LC AC HPLC system coupled with the triple quadrupole mass spectrometer (Sciex QTRAP 4500, both from the Danaher Corporation). The oven temperature was set at 30 °C. The initial mobile phase composition was 95% B (0.1% formic acid in water) and 5% A (0.1% formic acid in MeCN) for the first 2 min with a linear gradient to 5% B in the next 2 min and then isocratic mode for 2 min with the following rapid change back to 95% B in 0.1 min. The remaining time of elution was set at 95% B. The whole HPLC operation lasted 10 min, and the flow rate was set at 0.4 mL/min. Electrospray ionization (ESI) in the positive ion mode was used for ion production. […] The mass spectrometric conditions were optimized by continuous infusion of the standard solution at a rate of 7 μL/min using a Harvard infusion pump. The ion source temperature was maintained at 450 °C, and the ion spray voltage was set at 5500 V. The curtain gas (CUR) was set at 40 psi and the collision gas (CAD) at Medium. The calibration curves were constructed by plotting the ratio of the peak area of the studied compound to the internal standard (IS) versus drug concentration and generated by weighted (1/x × x) linear regression analysis. […] Working standard solutions were prepared in methanol by the serial dilution of the stock solution at the following concentrations: 0.01, 0.1, 0.25, 0.5, 1, 2.5, 5, 10, 20, 50, 100, and 200 μg/mL. To prepare samples for the calibration curve, 45 μL of the matrix (plasma or brain homogenate) was spiked with 5 μL of the standard working solution at an appropriate concentration level and vortexed for 10 s. For each matrix, there were two calibration curves constructed separately for lower and higher concentrations. Calibrators (as well as samples) from the upper concentration range were additionally 10 times diluted with the precipitating agent. The validated quantitation ranges for this method were from 0.001 to 5 μg/mL and from 0.1 to 20 μg/mL of serum, and from 0.005 to 25 μg/g and from 0.5 to 100 μg/g of the brain. Samples with the concentration of 28 above the upper limit of quantification were diluted 10 times with the blank matrix (serum or brain homogenate). […]

[3] = male, CD-1, mouse, ip, brain, i.p. 25 mg/kg, mice
[4] = male, CD-1, mouse, ip, brain, i.p. 50 mg/kg, mice
[5] = male, CD-1, mouse, ip, serum, i.p. 25 mg/kg, mice
[6] = male, CD-1, mouse, ip, serum, i.p. 50 mg/kg, mice
[7] = male, CD-1, mouse, po, brain, p.o. 25 mg/kg, mice
[8] = male, CD-1, mouse, po, serum, p.o. 25 mg/kg, mice

## CC(=O)NC(C)C(=O)N1CCN(c2cccc(OC(F)(F)F)c2)CC1 (stereo not drawn) [Compound 28, N-(1-oxo-1-(4-(3-(Trifluoromethoxy)phenyl)piperazin-1-yl)propan-2-yl)acetamide]
[1]; 10 μM, after application
  averaged maximal normalized amplitude of voltage-gated sodium currents: 0.72 ± 0.06
[1]; after wash-out
  averaged maximal normalized amplitude of voltage-gated sodium currents: 0.86 ± 0.05
[2]; after 25 mg/kg dose administration
  brain concentration: > 10 µM
[2]; brain, i.p. 25 mg/kg, mice
  AUC0–t: 347,914.8 ng·min/mL (g)
  AUC0–∞: 348,212.5 ng·min/mL (g)
  Cmax: 13,683.3 ng/mL (g)
  t0.5λz: 111.39 min
[2]; brain, i.p. 50 mg/kg, mice
  AUC0–t: 1,284,194.3 ng·min/mL (g)
  AUC0–∞: 1,285,007.9 ng·min/mL (g)
  Cmax: 39,800.0 ng/mL (g)
  t0.5λz: 106.52 min
[2]; brain, p.o. 25 mg/kg, mice
  AUC0–t: 333,360.7 ng·min/mL (g)
  AUC0–∞: 334,667.7 ng·min/mL (g)
  Cmax: 3799.4 ng/mL (g)
  t0.5λz: 97.20 min
[2]; male, CD-1, mouse, brain/serum, intraperitoneal, oral, both doses and routes of administration, read-out: brain-to-serum Cmax and AUC ratio
  Kp: > 1
[2]; male, CD-1, mouse, intraperitoneal, oral, all cases (serum and brain, both doses and routes), read-out: time to reach the maximum concentration (tmax) (converted)
  Tmax: 5 min
[2]; male, CD-1, mouse, intraperitoneal, oral, serum and brain, both doses and routes (i.p. and p.o.), read-out: elimination half-lives (t1/2)
  half-life: 58.6 to 111 min
[2]; [3]
  MRT: 23.6 min
  k el: 0.0001 s⁻¹
[2]; male, CD-1, mouse, ip, brain, i.p. 25 mg/kg, mice, read-out: tmax (converted)
  Tmax: 5 min
[2]; [4]
  MRT: 26.4 min
  k el: 0.000117 s⁻¹
[2]; male, CD-1, mouse, ip, brain, i.p. 50 mg/kg, mice, read-out: tmax (converted)
  Tmax: 5 min
[2]; [5]
  CL/F: 98 mL/min/kg
  MRT: 22 min
  Vd/F: 13.4 L/kg
  k el: 0.000117 s⁻¹
[2]; male, CD-1, mouse, ip, serum, i.p. 25 mg/kg, mice, read-out: tmax (converted)
  Tmax: 5 min
[2]; [6]
  CL/F: 48 mL/min/kg
  MRT: 24.4 min
  Vd/F: 5.89 L/kg
  k el: 0.000133 s⁻¹
[2]; male, CD-1, mouse, ip, serum, i.p. 50 mg/kg, mice, read-out: tmax (converted)
  Tmax: 5 min
[2]; [7]
  MRT: 110 min
  k el: 0.000117 s⁻¹
[2]; male, CD-1, mouse, po, brain, p.o. 25 mg/kg, mice, read-out: tmax (converted)
  Tmax: 5 min
[2]; [8]
  CL/F: 84 mL/min/kg
  MRT: 101 min
  Vd/F: 7.1 L/kg
  k el: 0.0002 s⁻¹
[2]; male, CD-1, mouse, po, serum, p.o. 25 mg/kg, mice, read-out: tmax (converted)
  Tmax: 5 min
[2]; serum, i.p. 25 mg/kg, mice
  AUC0–t: 254,384.6 ng·min/mL (g)
  AUC0–∞: 254,465.4 ng·min/mL (g)
  Cmax: 11,033.3 ng/mL (g)
  t0.5λz: 94.29 min
[2]; serum, i.p. 50 mg/kg, mice
  AUC0–t: 1,045,787.2 ng·min/mL (g)
  AUC0–∞: 1,045,940.8 ng·min/mL (g)
  Cmax: 37,566.7 ng/mL (g)
  t0.5λz: 85.42 min
[2]; serum, p.o. 25 mg/kg, mice
  AUC0–t: 297,899.7 ng·min/mL (g)
  AUC0–∞: 298,019.5 ng·min/mL (g)
  Cmax: 3740.0 ng/mL (g)
  t0.5λz: 58.62 min
